{"source": "patent US7871788B2", "about": "“Method of judging grade of malignancy of carcinoma cell using ATBF-1” (priority 2004, dated 2011)", "key": {"P19 cells [1]": {"system": "P19 cells", "assay": "Export of ATBF1 from nucleus to cytoplasm in P19 cells, CRM1 inhibitor added", "assay_type": "cell-based, mouse", "description": "(§1) The present inventors harvested cells in an undifferentiated proliferation state, to which stimulation had not been particularly applied, when at the starting time of culturing P19 carcinoma cells, and carried out an immunohistochemical staining method (ATBF1 staining using D1-120) by the following procedures. The cells were cultured in a chamber slide and fixed in 4% paraformaldehyde that had been adjusted with PBS, followed by washing. A primary antibody solution obtained by dissolving an anti-ATBF1 antibody in 0.05M Tris buffer solution (pH 7.6, containing 1% solution of bovine serum albumin and sodium azide) so that the concentration of the solution became 5 μg/ml was dropped on a slice to cause reaction at 37° C. for about 30 minutes (primary antibody reaction). After sufficiently washing, a secondary antibody Alexa Fluor 594-conjugated goat anti-rabbit IgG (as shown in the below-mentioned Examples, when double staining with other monoclonal antibody is carried out, Alexa Fluor 488-conjugated goat anti-mouse IgG is used simultaneously. Both are products by Molecular Probes.) was allowed to act on a specimen to cause a reaction at room temperature for about one hour (secondary antibody reaction). After sufficiently washing, inclusion was carried, which was observed by using a fluorescence microscope (AX70; Olympus) or a confocal laser scanning microscope (LSM5; ZWISS).\nRecently, the fact that transport and export of various factors from the nucleus to the cytoplasm is adjusted with CRM1 (Exportin 1 or chromosome region maintenance 1) has been reported. ATBF1 is assumed to have a target sequence of CRM1, that is, nuclear exporting signals existing in three positions (portions starting from the 1267th, 2471th and 2504th positions in the amino acid sequence, respectively) (see FIG. 3b). […]"}, "P19 cells [2]": {"system": "P19 cells", "assay": "Movement of ATBF1 from cytoplasm to nucleus in P19 cells, PI3K family antagonists added", "assay_type": "cell-based, mouse", "settings": "P19 cells attached to culture dish, after retinoic acid", "description": "as §1, with “After sufficiently washing, a secondary antibody Alexa Fluor 594-conjugated goat anti-rabbit IgG (as shown in the below-mentioned Examples, when double staining with other monoclonal antibody is carried out, Alexa Fluor 488-conjugated goat anti-mouse IgG is used simultaneously. Both are products by Molecular Probes.) was allowed to act on a specimen to cause a reaction at room temperature for about one hour (secondary antibody reaction).” left out, “ZWISS). […]” for “ZWISS).”\nFrom the fact about various factors relating to the cell cycle, which was investigated in the past, the movement of proteins between the nucleus and the cytoplasm is known to relate to phosphorylation of amino acid. In particular, it was determined that, for the movement to the nucleus, phosphorylation and dephosphorylation of nuclear localization signals were important. […]"}, "HT1376": {"system": "HT1376", "settings": "HT1376, p53 missense mutant, p21 frame shift mutation; cited from earlier work"}, "T24": {"system": "T24", "settings": "T24, p53 nonsense mutant; cited from earlier work"}, "RT4": {"system": "RT4", "settings": "cited from earlier work"}, "[3]": {"system": "NB1 cultured cell line derived from human neuroblastoma", "assay": "Western blotting of ATBF1 protein (D1-120) with or without retinoic acid treatment, NB1", "assay_type": "cell-based", "settings": "NB1, after retinoic acid treatment 24 hours", "description": "In order to confirm the probability that the ATBF1 assumed in 10-2 is cut at some sites and it can function as each fraction of the cell, by using three kinds of cultured cells, that is, the cultured cell lines derived from human neuroblastoma, NB1 and GOTO; a mouse undifferentiated embryonic carcinoma cell line p19 and SDS-PAGE and western blotting using an anti-ATBF1 antibody (D1-120) were carried out. A control group and a nerve cell differentiation inducing group were examined, separately. As to the control group, cells of P19, NB1 and GOTO that have been cultured in a serum-containing culture solution were collected and examined. As to the nerve cell differentiation inducing group, retinoic acid treatment was carried out (P19: four days; NB1 and GOTO: 24 hours). However, a culture method of P19 cells is different from that of the other two cell lines. Firstly, in a state in which cells were allowed to float on a bacterial grade dish for four days, retinoic acid (concentration: […]) treatment was carried out, and then a serum-containing culture solution from which the retinoic acid had removed was prepared and transferred to a usual tissue culture dish. Then, culture was continued for three days. According to this method, P19 cells were differentiated and induced to neuron in which neurite was observed. […]"}}, "note": "“Also recorded” adds a separate entry of the source.", "data": [{"smiles": "CCC(=C/[C@H](C)C/C=C/C(C)=C/[C@@H](C)C(=O)[C@@H](C)[C@H](O)[C@@H](C)C/C(C)=C/C(=O)O)/C=C/[C@@H]1OC(=O)C=C[C@@H]1C", "note": "[Leptomycin B]", "values": [{"measurement": "number of cells undergoing apoptosis", "setting": "P19 cells [1]; P19 cells after retinoic acid on coated dish", "value": "clearly increased"}, {"measurement": "intranuclear concentration of ATBF1", "setting": "P19 cells [1]; P19 cells after retinoic acid on dish coated with fibronectin and poly-L-ornithine, versus no Leptomycin B", "value": "clearly increased"}, {"measurement": "cell death", "setting": "P19 cells [1]; one more day of culture added, the following day", "value": "almost all the cells died"}]}, {"smiles": "Cn1c(=O)c2c(ncn2C)n(C)c1=O", "note": "[caffeine]", "values": [{"measurement": "movement of ATBF1 into the nucleus", "setting": "P19 cells [2]", "value": "inhibited in almost all of the cultured cells; also recorded: more completely inhibited"}, {"measurement": "proliferation state of cells", "setting": "P19 cells [2]", "value": "completely maintained"}]}, {"smiles": "N.N.[Cl][Pt][Cl]", "note": "[cisplatin]", "values": [{"measurement": "induction of apoptosis", "setting": "HT1376", "value": "cannot be induced"}, {"measurement": "induction of apoptosis", "setting": "T24", "value": "cannot be induced"}, {"measurement": "introduction of p21", "setting": "RT4; RT4, the only one of the three cell lines", "value": "can introduce p21"}, {"measurement": "induction of apoptosis", "setting": "RT4; RT4, wild-type p21 and p53", "value": "can be induced"}]}, {"smiles": "CC1=C(/C=C/C(C)=C/C=C/C(C)=C/C(=O)O)C(C)(C)CCC1", "note": "[retinoic acid]", "values": [{"measurement": "size of ATBF1 protein mainly observed", "setting": "[3]", "value": 210, "unit": "kDa"}]}]}
